What was measured:
NRC1 NB-ARC domain [1] = molecular target: T1, NRC1 NB-ARC domain (Solanum lycopersicum, UniProt A1X877); assay: luciferase assay of nucleotide released by boiling, ADP converted to ATP with pyruvate kinase; assay type: binding; conditions: co-purified ligand, no ADP added; protein from E. coli and from Sf9 cells; no ATP detected
T1 construct: NB-ARC domain, residues 150-494; E. coli Lemo21(DE3) (pOPIN-S3C, 6xHis-SUMO) or Sf9 cells (pOPIN-F, 6xHis); N-terminal tag cut with 3C protease; 346 residues in expressed construct; about 40 kDa monomer
T1 sequence (A1X877 entry or part of it): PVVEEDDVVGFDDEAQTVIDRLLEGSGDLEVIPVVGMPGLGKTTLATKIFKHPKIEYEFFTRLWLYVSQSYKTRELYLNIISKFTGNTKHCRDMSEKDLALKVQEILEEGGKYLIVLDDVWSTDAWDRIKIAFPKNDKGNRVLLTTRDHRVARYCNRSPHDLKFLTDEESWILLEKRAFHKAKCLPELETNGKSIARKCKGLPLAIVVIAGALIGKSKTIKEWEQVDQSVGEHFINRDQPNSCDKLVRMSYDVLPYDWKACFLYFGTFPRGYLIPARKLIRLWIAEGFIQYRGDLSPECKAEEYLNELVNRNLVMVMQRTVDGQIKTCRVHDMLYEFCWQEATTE

NRC1 NB-ARC domain [2] = molecular target: T2, NRC1 NB-ARC domain (Solanum lycopersicum, UniProt A1X877, D268N); assay: as above; assay type: binding; conditions: co-purified ligand, no ADP added; protein from Sf9 cells; Walker B mutant; no ATP detected
T2 construct: NB-ARC domain, residues 150-494; E. coli Lemo21(DE3) (pOPIN-S3C, 6xHis-SUMO) or Sf9 cells (pOPIN-F, 6xHis); N-terminal tag cut with 3C protease; 346 residues in expressed construct; about 40 kDa monomer
T2 sequence (A1X877 entry or part of it D268N): as the sequence (A1X877 entry or part of it) above, with D119N counted along it

NRC1 NB-ARC domain [3] = molecular target: T1, NRC1 NB-ARC domain; assay: X-ray crystal structure, […] A (native); SeMet SAD map at […] A; conditions: co-purified ligand; nucleotide-binding pocket; E. coli-expressed protein; crystals at pH 4.5

Question: `Nc1ncnc2c1ncn2[C@@H]1O[C@H](COP(=O)(O)OP(=O)(O)O)[C@@H](O)[C@H]1O` [ADP] was tested. Which “% ADP occupancy” value (NRC1 NB-ARC domain [1]) did it give?
Answer: Its value is “all three NRC1 NB-ARC proteins co-purified with ADP with high occupancy”.

Question: What about the “% ADP occupancy” value (NRC1 NB-ARC domain [2]) of the same compound?
Answer: Its value is “NRC1 NB-ARC^D268N, a mutant designed to abolish ATPase activity, also co-purified with ADP”.

Question: And the “X-ray crystal structure, 2.5 A (native); SeMet SAD map at 3.03 A” value (NRC1 NB-ARC domain [3])?
Answer: The value was “allowed us to unambiguously position a molecule of ADP, and the side-chains of interacting residues”.

Source: article PMC6713354, “Structural and biochemical studies of an NB-ARC domain from a plant NLR immune receptor” (PLoS ONE, 2019)
